Results from patent US8591878B2, “Therapeutic compounds” (Merck Sharp & Dohme Corp., priority 2008, dated 2013).

What follows are compounds tested on subgenomic HCV replicon in Huh-7 cells (assay: Cell-Based HCV Replication Assay (replicon, NS3 Cell-ELISA)). Conditions: Hepatitis C virus, Huh-7, 96 h, read-out: Cell based HCV Replication Assay-IC50.
Parameters: species or system hepatitis C virus (HCV)
Description: Another suitable assay is the cellular Replicon or rheplisa assay described as follows:
Cell-Based HCV Replication Assay
Cell clones that stably maintain subgenomic HCV replicon were obtained by transfecting Huh-7 cells with an RNA replicon identical to I377neo/NS3-3′/wt described by V. Lohmann et al., 285 SCIENCE 110 (Jul. 2, 1999) (EMBL-GENBANK No. AJ242652), followed by selection with neomycin sulfate (G418). Viral replication was monitored by measuring the expression of the NS3 protein by an ELISA assay performed directly on cells grown in 96-well microtiter plates (Cell-ELISA) using the anti-NS3 monoclonal antibody 10E5/24 (as described in International Patent Application Publication WO 02/59321). Cells were seeded into 96 well plates at a density of 10^4 cells per well in a final volume of 0.1 ml of DMEM/10% FCS. Two hours after plating, 50 μl of DMEM/10% FCS containing a 3× concentration of inhibitor were added, cells were incubated for 96 hours and then fixed for 10 minutes with ice-cold isopropanol. Each condition was tested in duplicate and average absorbance values were used for calculations. The cells were washed twice with PBS, blocked with 5% non-fat dry milk in PBS+0.1% TRITON X-100+0.02% SDS (PBSTS) and then incubated o/n at 4° C. with the 10E5/24 mab diluted in Milk/PBSTS. After washing 5 times with PBSTS, the cells were incubated for 3 hours at room temperature with Fe-specific anti-mouse IgG conjugated to alkaline phosphatase (Sigma), diluted in Milk/PBSTS. After washing again as above, the reaction was developed with p-nitrophenyl phosphate disodium substrate (Sigma) and the absorbance at 405/620 nm read at intervals. For calculations, we used data sets where samples incubated without inhibitors had absorbance values comprised between 1 and 1.5. The inhibitor concentration that reduced by 50% the expression of NS3 (IC50) was calculated by fitting the data to the Hill equation, Fraction inhibition=1−(Ai−b)/(A0−b)=[I]^n/([I]+IC50) where: • Ai=absorbance value of HBI10 cells supplemented with the indicated inhibitor concentration. • A0=absorbance value of HBI10 cells incubated without inhibitor. • b=absorbance value of Huh-7 cells plated at the same density in the same microtiter plates and incubated without inhibitor. • n=Hill coefficient.

With `C=C[C@@H]1C[C@]1(NC(=O)[C@@H]1C[C@@H]2CN1C(=O)[C@H](C1CCCCC1)NC(=O)N1CCC[C@H](C1)OCCCc1cc3c(cc(OCC)nc3cc1OC)O2)C(=O)NS(=O)(=O)C1CC1` [Example 12, (3R,5S,8S,15R)-8-cyclohexyl-N-((1R,2S)-1-{[(cyclopropylsulfonyl)amino]carbonyl}-2-vinylcyclopropyl)-25-ethoxy-21-methoxy-7,10-dioxo-2,16-dioxa-6,9,11,24-tetraazapentacyclo [18.6.2.1^3,6.1^11,15.0^23,27] triaconta-1(27),20,22,23,25,27-hexaene-5-carboxamide] as the compound, how does the IC50 read?
The IC50 was 4 nM.

Same assay, conditions: Hepatitis C virus; Huh-7 cells with subgenomic HCV replicon; NS3 expression by Cell-ELISA; 96 hours incubation; read-out: Cell based HCV Replication Assay-IC50

Which IC50 does the source give for `CCOc1cc2c3cc(c(OC)cc3n1)/C=C/CO[C@H]1CCN(C1)C(=O)N[C@@H](C1CCCC1)C(=O)N1C[C@@H](C[C@H]1C(=O)N[C@]1(C(=O)NS(=O)(=O)C3CC3)C[C@H]1CC)O2` [Example 23, (3R,5S,8S,14S,17E)-8-cyclopentyl-N-((1R,2R)-1-{[(cyclopropylsulfonyl)amino]carbonyl}-2-ethylcyclopropyl)-24-ethoxy-20-methoxy-7,10-dioxo-2,15-dioxa-6,9,11,23-tetraazapentacyclo [17.6.2.1^3,6.1^11,14.0^22,26] nonacosa-1(25),17,19,21,23,26-hexaene-5-carboxamide] here?
The IC50 was 7 nM.

`CC[C@@H]1C[C@]1(NC(=O)[C@@H]1C[C@@H]2CN1C(=O)[C@H](C1CCCC1)NC(=O)N1CC[C@@H](C1)OCCC/C=C/c1cc3ccc(OC)cc3nc1O2)C(=O)NS(=O)(=O)C1CC1` [Example 19, (1R,13E,19S,25S,28S)-25-cyclopentyl-N-((1R,2R)-1-{[(cyclopropylsulfonyl)amino]carbonyl}-2-ethylcyclopropyl)-7-methoxy-23,26-dioxo-2,18-dioxa-4,22,24,27-tetraazapentacyclo [25.2.1.1^19,22.0^3,12.0^5,10] hentriaconta-3(12),4,5,7,9,10,13-heptaene-28-carboxamide] was tested. Which IC50 did it give?
Its IC50 is 4 nM.

With `C=C[C@@H]1C[C@]1(NC(=O)[C@@H]1C[C@@H]2CN1C(=O)[C@H](C1CCCCC1)NC(=O)N1CCC[C@@H](C1)OCCCc1cc3c(cc(-c4ccccc4)nc3cc1OC)O2)C(=O)NS(=O)(=O)C1CC1` [Example 9, (3R,5S,8S,15S)-8-cyclohexyl-N-((1R,2S)-1-{[(cyclopropylsulfonyl)amino]carbonyl}-2-vinylcyclopropyl)-21-methoxy-7,10-dioxo-25-phenyl-2,16-dioxa-6,9,11,24-tetraazapentacyclo [18.6.2.1^3,6.1^11,15.0^23,27] triaconta-1(27),20,22,23,25,27-hexaene-5-carboxamide] as the compound, how does the IC50 read?
Its IC50 is 7 nM.

How did the IC50 turn out when `C=C[C@@H]1C[C@]1(NC(=O)[C@@H]1C[C@@H]2CN1C(=O)[C@H](C1CCCCC1)NC(=O)N1CC[C@@H](C1)OC/C=C/c1cc3c(cc(OCC)nc3cc1OC)O2)C(=O)NS(=O)(=O)C1CC1` [Example 13, (3R,5S,8S,14S,17E)-8-cyclohexyl-N-((1R,2S)-1-{[(cyclopropylsulfonyl)amino]carbonyl}-2-vinylcyclopropyl)-24-ethoxy-20-methoxy-7,10-dioxo-2,15-dioxa-6,9,11,23-tetraazapentacyclo [17.6.2.1^3,6.1^11,14.0^22,26] nonacosa-1(25),17,19,21,23,26-hexaene-5-carboxamide] was run?
Its IC50 is 9 nM.

`C=C[C@@H]1C[C@]1(NC(=O)[C@@H]1C[C@@H]2CN1C(=O)[C@H](C1CCCC1)NC(=O)N1CC[C@@H](C1)OC/C=C/c1cc3c(cc(OCC)nc3cc1OC)O2)C(=O)NS(=O)(=O)C1CC1` [Example 22, (3R,5S,8S,14S,17E)-8-cyclopentyl-N-((1R,2S)-1-{[(cyclopropylsulfonyl)amino]carbonyl}-2-vinylcyclopropyl)-24-ethoxy-20-methoxy-7,10-dioxo-2,15-dioxa-6,9,11,23-tetraazapentacyclo [17.6.2.1^3,6.1^11,14.0^22,26] nonacosa-1(25),17,19,21,23,26-hexaene-5-carboxamide] was tested. Which IC50 did it give?
Its IC50 is 11 nM.
